Test results: ChEMBL document CHEMBL1139208, “An efficient and stereoselective dearylation of asarinin and sesamin tetrahydrofurofuran lignans to acuminatolide by methyltrioxorhenium/H(2)O(2) and UHP systems” (J Nat Prod, 2007)

System: NIH3T3
Assay: Cytotoxicity against murine 3T3 cells by MTT assay
Assay type: cell-based
Conditions: Mus musculus

Compound	IC50
O=C(O)[C@H]1CO[C@@H](c2ccc3c(c2)OCO3)[C@H]1CO	3000 nM
O=C1OC[C@H]2[C@@H]1CO[C@H]2c1ccc2c(c1)OCO2	> 20000 nM
O=C1OC[C@H]2[C@@H]1CO[C@@H]2c1ccc2c(c1)OCO2	> 20000 nM
c1cc2c(cc1[C@H]1OC[C@H]3[C@@H]1CO[C@H]3c1ccc3c(c1)OCO3)OCO2 [ASARININ]	200 nM
